Tests used:
[1] = system: Alpha-1 adrenergic receptors from rat brain cortex; test: [3H]Prazosin binding to alpha-1 adrenergic receptors from rat brain cortex (Protocol 4); conditions: for r-α1 % Inh: r = rat, Inh @ 1 μM
Excerpt: [^3H]Prazosin Binding to Alpha-1 Adrenergic Receptors from Rat Brain Cortex
Objective: This in vitro assay is designed as a screen to identify compounds displaying a affinity for the a, adrenoceptor subtype in membranes from rat cortex. It measures the ability of the test compounds to displace [^3H]prazosin from the α1 sites.
Membrane Preparation: Rat brain tissue can be obtained from either fresh (male Wistar rats; 200-250 g) or frozen (male Sprague-Dawley 200-250 g from Harlan; cat. #BT-403) stocks. The cortex is dissected, homogenized in 50 vol (wet weight) ice-cold 50 mM Tris buffer (pH 7.7 at 25° C.). The homogenate is centrifuged at 48,000 g for 10 min, the pellet is resuspended in 50 mM Tris buffer and centrifuged a second time. The second pellet (P2) is resuspended to yield a concentration of 115 mg wet weight per 10 ml. […] Membranes should be mixed just before addition to ensure an even suspension. […] This is diluted to a 0.5 mM stock in dH2O. Serial dilutions in Buffer A are made from which 50 μl additions to the plate are made in duplicate in order to achieve the final concentrations desired. Typically, one 96 well plate is used to evaluate 11 compounds at 4 concentrations (10^−6-10^−9 M) in duplicate. Total binding and nonspecific binding are determined in quadruplicate. Usually one standard is run with each assay. • [^3H]Prazosin is made up in Buffer A such that when 50 μl are added per well the final concentration is […] in a final assay volume of 200 μl. The final concentration should be verified by running a sample in a scintillation counter prior to adding the [^3H]prazosin to the 96 well plate. Note: The radioactivity should be prepared just before the additions are made so that it is not allowed to sit on the bench for very long. • Packard GF/B Plate Pretreatment: The filter plates are presoaked for at least 30 min in ice cold Buffer B containing 0.05% polyethyleneimine (200 μl/200 ml) to maximize filtration efficiency and minimize filter blank binding. • Incubation & Filtration: Once buffer, compounds, [^3H]prazosin and membrane have been added (and mixed), the 96 well plates are incubated for 40 min at 37° C. and spaced 3-5 min apart. At 40 min, the plates are filtered using a Tomtec Automated Cell Harvester. Filtration is immediately followed by washes of ice cold Buffer B (total vol. ˜7 ml). • Drying and Counting: Each filter plate is dried under a heat lamp for 15 min. The back of the plate is sealed and 40 μl of Packard microscint fluid are added per well. Using Packard film, each plate is heat sealed prior to being counted in a Packard Topcount Scintillation counter. A program has been written that counts each plate twice sending DPM, CPM and TSIS data to disk and printer. • Analysis of Results: Raw DPM and CPM data are captured on disk and are imported into one of several software packages (Graphpad Prism Ver 2.0, Excel) residing on the LAN. Specific binding is defined as the difference between total binding and the binding in the presence of 10 μM phentolamine. Total binding is less than 10% of the total added ligand. Software using one-site competition curve analysis is employed in the calculation of IC50 and KI (Cheng-Prusoff equation, 1973). The top and bottom of the non-linear regression are held constant at 0% and 100% inhibition. The percent inhibition at each drug concentration is the mean of duplicate determinations.

[2] = molecular target: T1, human dopamine D3 receptor (Homo sapiens, UniProt P35462); test: Microphysiometer test of functional activity in CHO cells expressing human dopamine D3 receptor (quinpirole-induced acidification rate); assay type: cell-based; conditions: test compound 10 nM, 100 nM, 1 uM; quinpirole 10 nM
T1 construct: expressed in transfected cells; host or cells: CHO cells
T1 sequence (P35462 whole entry): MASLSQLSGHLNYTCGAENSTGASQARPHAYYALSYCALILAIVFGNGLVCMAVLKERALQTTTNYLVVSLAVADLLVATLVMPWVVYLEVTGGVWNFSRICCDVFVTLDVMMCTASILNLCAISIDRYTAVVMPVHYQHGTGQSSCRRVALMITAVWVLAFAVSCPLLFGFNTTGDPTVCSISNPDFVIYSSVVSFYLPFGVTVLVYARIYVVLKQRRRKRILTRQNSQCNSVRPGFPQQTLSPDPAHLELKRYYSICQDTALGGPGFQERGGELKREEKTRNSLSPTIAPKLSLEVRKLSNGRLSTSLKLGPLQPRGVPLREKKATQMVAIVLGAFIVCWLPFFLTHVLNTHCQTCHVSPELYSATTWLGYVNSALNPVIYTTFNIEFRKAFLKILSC
Method: The functional activity of compounds of the invention (i.e. whether they are antagonists, agonists or partial agonists) can readily be determined using the microphysiometer test method that follows:
Chinese Hamster Ovary (CHO) cells, expressing the human dopamine D3 receptor, were grown on the surface of a capsule cup. Cups are assembled and placed on the microphysiometer, and buffer (Dulbecco's Modified Eagle's Medium without sodium bicarbonate and without serum) is perfused through the cup assembly until a stable baseline is achieved (4 hours). Buffer perfusion rate and solution changes are controlled by a computer. Intracellular acidification rate is measured in each of the 8 cup assemblies and recorded by the computer. Buffer containing test compound (10 nM, 100 nM, and 1 uM) is perfused through the cup assembly for 20 min. Buffer containing quinpirole (10 nM) (a D3 agonist) and test compound (same concentrations) is perfused for an additional 1 min. This is followed by a recovery period of 10-60 min where buffer alone was perfused through the cups. Quinpirole increases the rate of acidification. If the test compound is a D3 antagonist, this increase will be inhibited in a concentration dependent manner.

Row | r-α1 % Inh [1] [%] | Compound | also measured
1 | – | O=C(NCCCCN1CCN(c2csc3cc(C(F)(F)F)ccc23)CC1)c1cc2ccccc2s1 [814238A] | rat alpha 1 % I ([1]; @ 10 uM): 50% @ 10 uM
2 | – | CCOc1ccc(C(=O)NCCCCN2CCN(c3csc4cc(C(F)(F)F)ccc34)CC2)cc1 [compound 815541] | functional activity at D3 (inhibition of quinpirole-induced increase of acidification rate) [2]: D3 antagonists
3 | 14 | O=C(NCCCCN1CCCN(c2csc3cc(F)ccc23)CC1)c1ccc(OC(F)(F)F)cc1 [compound 822152] | –
4 | 0 | O=C(NCCCCN1CCCN(c2csc3cc(F)ccc23)CC1)c1cccc(F)c1 [compound 822154] | –
5 | 41 | COc1ccccc1C(=O)NCCCCN1CCCN(c2csc3cc(F)ccc23)CC1 [compound 822157] | –
6 | 0 | CC(C)(C)c1ccc(C(=O)NCCCCN2CCCN(c3csc4cc(F)ccc34)CC2)cc1 [compound 822198] | –
